Test systems include CAKI-1 renal; SK-MEL-5 melanoma; HCT-15 colon; A549 NSCLC; TK-10 renal; NCI-H226 lung; M14 melanoma; RPMI-8226 leukemia; K-562 leukemia; MOLT-4 leukemia.
Holding throughout (experiment): NCI anticancer screen, dose series, 48 h

Molecules are shown by their SMILES.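 In this assay, cells in 96-well plates receive the compound at five concentrations for 48 hours. Endpoints are linearly interpolated between the surrounding concentrations. GI50 is the concentration that inhibits growth by half. TGI: concentration producing complete growth inhibition.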 Bounds are passed on as bounds.

For `Clc1ccc(OCc2nnc(COc3ccc(OCc4nnc(COc5ccc(Cl)cc5Cl)o4)c(Cl)c3)o2)c(Cl)c1`, the TGI is 54.9 µM with CAKI-1 renal; above 100 µM in the experiment on SK-MEL-5 melanoma; above 100 µM in the experiment on HCT-15 colon; above 100 µM with A549 NSCLC; above 100 µM in the experiment with TK-10 renal; above 100 µM in the experiment with NCI-H226 lung. Besides, the TGI in the experiment with M14 melanoma is above 100 µM; in the experiment with RPMI-8226 leukemia it was 39.6 µM; with K-562 leukemia, 53.3 µM.

Consider `C[C@H](c1ccccc1)N1C(=O)[C@@H](OCc2ccccc2)[C@H]1[C@H](COC(=O)COCc1ccccc1)OCc1ccccc1`, for which the TGI in the experiment on SK-MEL-5 melanoma is above 100 µM; with MOLT-4 leukemia it was above 100 µM; in the experiment on HCT-15 colon, above 100 µM; in the experiment with A549 NSCLC, above 100 µM; in the experiment with TK-10 renal it was above 100 µM; with NCI-H226 lung, 89.4 µM. Besides, the TGI with M14 melanoma, in the experiment with RPMI-8226 leukemia and in the experiment on K-562 leukemia was above 100 µM each time.

For the compound `CN(C)CCCNc1cc(O)c2c(c1O)C(=O)c1ccccc1C2=O`, the TGI came out at 25.7 µM in the experiment on CAKI-1 renal; 26.5 µM with SK-MEL-5 melanoma; 21 µM in the experiment with HCT-15 colon; 23.9 µM with A549 NSCLC; 22.1 µM in the experiment on TK-10 renal; 35.2 µM in the experiment with NCI-H226 lung. The TGI worked out at 19.5 µM in the experiment with M14 melanoma, 29.8 µM in the experiment on RPMI-8226 leukemia and 21.6 µM in the experiment with K-562 leukemia.

As to `CCN(CCCCCCCCCCN1CC(=O)N(CCCCCCCCCCN(CC)Cc2ccccc2OC)CC1=O)Cc1ccccc1OC`, the GI50 in the experiment with CAKI-1 renal is 1.57 µM; in the experiment with SK-MEL-5 melanoma, 1.36 µM; in the experiment with MOLT-4 leukemia, 1.8 µM; with HCT-15 colon it was 1.55 µM; with A549 NSCLC, 1.65 µM; in the experiment on NCI-H226 lung it was 1.96 µM. Moreover, the GI50 is 0.812 µM in the experiment with RPMI-8226 leukemia and 0.388 µM with K-562 leukemia. Further, the TGI with CAKI-1 renal was 3.15 µM; with SK-MEL-5 melanoma, 2.7 µM; in the experiment on MOLT-4 leukemia, 8.04 µM; in the experiment on HCT-15 colon, 5.34 µM; in the experiment with A549 NSCLC, 4.54 µM; in the experiment on NCI-H226 lung, 3.94 µM. Further, the TGI in the experiment on RPMI-8226 leukemia stood at 3.1 µM; with K-562 leukemia, 12 µM.

In the case of `COc1cccc(N2C(=O)CS(=O)(=O)C2c2cccc(Oc3ccccc3)c2)c1` (centres undefined), the TGI is above 100 µM with CAKI-1 renal; 22.6 µM with SK-MEL-5 melanoma; 57.6 µM with MOLT-4 leukemia; above 100 µM with HCT-15 colon; above 100 µM with A549 NSCLC; 47.4 µM in the experiment with TK-10 renal. Also, the figures for the TGI with NCI-H226 lung, with M14 melanoma and with K-562 leukemia were 76.7 µM, 89.7 µM and 19.5 µM, respectively.

In the case of `COc1cc(OC)cc(Oc2nc3cc(F)c(F)cc3nc2-c2ccccc2)c1`, the TGI with CAKI-1 renal, with SK-MEL-5 melanoma, in the experiment on MOLT-4 leukemia, with HCT-15 colon, with A549 NSCLC and in the experiment with TK-10 renal was above 100 µM each time. In addition, the TGI in the experiment on NCI-H226 lung and with M14 melanoma was above 100 µM throughout.

In the case of `CN(C)CCNc1c([N+](=O)[O-])sc2ccc(Cl)cc12`, the TGI with SK-MEL-5 melanoma is above 100 µM; with MOLT-4 leukemia, 7.73 µM; in the experiment on HCT-15 colon, above 100 µM; in the experiment with A549 NSCLC it was above 100 µM; in the experiment on TK-10 renal, above 100 µM; with NCI-H226 lung it was 66 µM. Further, the TGI in the experiment on M14 melanoma, in the experiment on RPMI-8226 leukemia and in the experiment on K-562 leukemia was above 100 µM each time.

Consider `CC(O)CNC1=CC(=O)C(=O)c2ccccc21` (centres undefined), for which the TGI in the experiment on CAKI-1 renal was 33.5 µM; in the experiment on SK-MEL-5 melanoma it was 15 µM; with MOLT-4 leukemia, 59.9 µM; in the experiment with HCT-15 colon it was 33.6 µM; in the experiment on A549 NSCLC it was 39.5 µM; with TK-10 renal it was 70.4 µM. In addition, the TGI with M14 melanoma was 32.1 µM; in the experiment on RPMI-8226 leukemia it was 48 µM; in the experiment on K-562 leukemia it was above 100 µM.

In the case of `CC(C)=CCC12Cc3ccc(O)cc3C(C(C)CN1)C2C` (centres undefined), the TGI in the experiment with MOLT-4 leukemia is above 100 µM; with HCT-15 colon it was above 100 µM; in the experiment on A549 NSCLC it was above 100 µM; in the experiment with TK-10 renal, above 100 µM; in the experiment on NCI-H226 lung it was above 100 µM; in the experiment on M14 melanoma, 51.5 µM. Moreover, the TGI in the experiment with RPMI-8226 leukemia and in the experiment on K-562 leukemia was above 100 µM throughout.

`CC(=O)OC1CC2(O)C(CCC3(C)C(c4ccc(=O)oc4)CCC32O)C2(C)C1=CC(O)C1OC12` (centres undefined): the TGI was 0.0968 µM in the experiment on CAKI-1 renal; 0.0435 µM with SK-MEL-5 melanoma; 0.0366 µM in the experiment with MOLT-4 leukemia; 0.32 µM in the experiment on HCT-15 colon; 0.0569 µM in the experiment with A549 NSCLC; 0.643 µM with NCI-H226 lung. Further, the figures for the TGI with RPMI-8226 leukemia and in the experiment with K-562 leukemia were 0.4 µM and 0.381 µM, respectively.

`Cc1ccc(C(=O)Cc2nc3c([nH]c2=O)c(C)nn3-c2ccccc2)c(C)c1`: the TGI with CAKI-1 renal, in the experiment on SK-MEL-5 melanoma, in the experiment with MOLT-4 leukemia, with HCT-15 colon, in the experiment with A549 NSCLC and in the experiment with TK-10 renal was above 10 µM throughout. In addition, the TGI in the experiment with M14 melanoma, with RPMI-8226 leukemia and with K-562 leukemia was above 10 µM each time.

Regarding `CCCO/N=[N+](\[O-])N(CC)CC`, the TGI in the experiment with SK-MEL-5 melanoma, in the experiment with MOLT-4 leukemia, with HCT-15 colon, with A549 NSCLC, in the experiment on TK-10 renal and in the experiment with NCI-H226 lung was above 100 µM throughout. Also, the TGI in the experiment with M14 melanoma and in the experiment on K-562 leukemia was above 100 µM throughout.

Regarding `CCC(=O)Nc1ccc(NS(=O)(=O)c2ccc(Cl)cc2)cc1`, the TGI in the experiment on CAKI-1 renal, with SK-MEL-5 melanoma, in the experiment on MOLT-4 leukemia, with HCT-15 colon, in the experiment on A549 NSCLC and in the experiment on NCI-H226 lung was above 100 µM throughout. Besides, the TGI in the experiment with M14 melanoma was above 100 µM; in the experiment on RPMI-8226 leukemia, 54.3 µM; in the experiment on K-562 leukemia, above 100 µM.

Turning to `O=C1c2cccnc2S(=O)(=O)N1c1ccc([N+](=O)[O-])cc1`, the TGI in the experiment with CAKI-1 renal, in the experiment on SK-MEL-5 melanoma, with MOLT-4 leukemia, in the experiment with HCT-15 colon, in the experiment on A549 NSCLC and in the experiment with TK-10 renal was above 100 µM throughout. Further, the TGI in the experiment with NCI-H226 lung, in the experiment on M14 melanoma and in the experiment with RPMI-8226 leukemia was above 100 µM in each case.

(Values after PubChem BioAssay (NCI).)
